The target of experiment [1] is T1, Transient receptor potential cation channel subfamily A member 1 (Mus musculus, UniProt Q8BLA8). In words: Agonist activity at mouse TRPA1 channel expressed in HEK293 cells assessed as increase in intracellular calcium influx. The class given is functional, cell-based. On the technique in general: Calcium flux is commonly read through the fluorescence of an indicator in the cells.

For experiment [2], the target named is T2, Transient receptor potential cation channel subfamily A member 1 (Homo sapiens, UniProt O75762). In words: Agonist activity at human TRPA1 channel expressed in HEK293 cells assessed as increase in intracellular calcium influx. Type of experiment: functional, cell-based.
Experiment [3] has as its target T1, Transient receptor potential cation channel subfamily A member 1. In words: Agonist activity at TRPA1 channel in mouse dorsal root ganglion cells assessed as increase in intracellular calcium influx by radiometric Ca2+ imaging. The class given is functional, tissue-based.
The target is the same in experiment [4]. In words: Antagonist activity at mouse TRPA1 channel expressed in CHO cells assessed as blockade of agonist-induced whole cell conductance by electrophysiology. The class given is functional, cell-based.
The target in experiment [5] is T3, Transient receptor potential cation channel subfamily M member 8 (Homo sapiens, UniProt Q7Z2W7). Put plainly: Activation of TRPM8 channel.
Experiment [6] concerns the target T2, Transient receptor potential cation channel subfamily A member 1. In words: Agonist activity at human TRPA1 channel in HEK293 cells assessed as increase in intracellular calcium influx by radiometric Ca2+ imaging. The class given is functional, cell-based.
In experiment [7] the target is T1, Transient receptor potential cation channel subfamily A member 1. Put plainly: Antagonist activity at mouse TRPA1 channel expressed in CHO cells assessed as inhibition of cinnamaldehyde-induced intracellular calcium influx.
Experiment [8] concerns the target T2, Transient receptor potential cation channel subfamily A member 1. Put plainly: Antagonist activity at human TRPA1 channel expressed in CHO cells assessed as inhibition of cinnamaldehyde-induced intracellular calcium influx. Type of experiment: functional, cell-based.
The target is the same in experiment [9]. In words: Activation of human TRPA1 channel.
The target of experiment [10] is T1, Transient receptor potential cation channel subfamily A member 1. Put plainly: Activation of mouse TRPA1 channel.
The target in experiment [11] is T2, Transient receptor potential cation channel subfamily A member 1. Put plainly: Antagonist activity at human TRPA1 channel assessed as inhibition of 4-hydroxy-2-nonenal-induced response. The class given is functional.
The target is the same in experiment [12]. Put plainly: Antagonist activity at human TRPA1 channel assessed as inhibition of allyl isothiocyanate-induced intracellular calcium influx. Type of experiment: functional, cell-based.
The target of experiment [13] is T3, Transient receptor potential cation channel subfamily M member 8. In words: Antagonist activity at human TRPM8 channel. Type of experiment: functional.
Experiment [14] concerns the target Transient receptor potential cation channel subfamily V member 4 (Homo sapiens, UniProt Q9HBA0). In words: Antagonist activity at human TRPV4 channel. Type of experiment: functional.
For experiment [15], the target named is T2, Transient receptor potential cation channel subfamily A member 1. Put plainly: Antagonist activity at human TRPA1 channel expressed in HEK293 cells assessed as inhibition of allyl isothiocyanate-induced intracellular calcium influx by FLIPR. The class given is functional, cell-based.
Experiment [16] has the same target. Put plainly: Antagonist activity at human TRPA1 channel assessed as inhibition of nifedipine-induced intracellular calcium influx. The class given is functional, cell-based.
For experiment [17], the target named is Transient receptor potential cation channel subfamily V member 1 (Homo sapiens, UniProt Q8NER1). Put plainly: Antagonist activity at human TRPV1 channel. The class given is functional.
Experiment [18] addresses T2, Transient receptor potential cation channel subfamily A member 1. In words: Antagonist activity at human TRPA1 channel assessed as inhibition of formalin-induced intracellular calcium influx. Type of experiment: functional, cell-based.
The target of experiment [19] is T4, Transient receptor potential cation channel subfamily V member 3 (Homo sapiens, UniProt Q8NET8).
T4 sequence (Q8NET8 whole entry): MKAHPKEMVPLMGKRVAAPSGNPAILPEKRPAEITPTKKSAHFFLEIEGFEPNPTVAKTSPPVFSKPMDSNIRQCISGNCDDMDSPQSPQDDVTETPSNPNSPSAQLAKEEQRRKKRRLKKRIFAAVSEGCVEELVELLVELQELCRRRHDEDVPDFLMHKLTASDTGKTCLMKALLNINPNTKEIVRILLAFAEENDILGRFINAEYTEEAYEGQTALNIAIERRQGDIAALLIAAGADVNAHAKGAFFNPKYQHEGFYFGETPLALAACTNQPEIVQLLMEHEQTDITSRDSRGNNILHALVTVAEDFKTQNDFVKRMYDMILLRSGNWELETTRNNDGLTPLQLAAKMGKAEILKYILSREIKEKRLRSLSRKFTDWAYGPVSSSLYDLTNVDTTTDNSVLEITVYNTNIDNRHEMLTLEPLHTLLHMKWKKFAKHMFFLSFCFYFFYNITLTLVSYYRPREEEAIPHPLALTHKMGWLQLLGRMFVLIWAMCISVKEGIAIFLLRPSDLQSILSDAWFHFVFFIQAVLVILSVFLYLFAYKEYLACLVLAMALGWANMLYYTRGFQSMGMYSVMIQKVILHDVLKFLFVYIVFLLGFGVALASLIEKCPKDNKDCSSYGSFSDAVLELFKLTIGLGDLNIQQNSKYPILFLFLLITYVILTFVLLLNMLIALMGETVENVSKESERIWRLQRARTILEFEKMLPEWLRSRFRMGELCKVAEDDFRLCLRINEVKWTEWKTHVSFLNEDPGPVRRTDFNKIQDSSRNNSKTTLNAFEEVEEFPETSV
In words: Antagonist activity at human TRPV3 channel. Type of experiment: functional.

The target of experiment [20] is T2, Transient receptor potential cation channel subfamily A member 1. In words: Antagonist activity at human TRPA1 channel expressed in HEK293 cells assessed as inhibition of cinnamaldehyde-induced intracellular calcium influx by FLIPR. Type of experiment: functional, cell-based.

This note sets out measurements from ChEMBL document CHEMBL1155439, “Transient receptor potential ankyrin 1 (TRPA1) channel as emerging target for novel analgesics and anti-inflammatory agents” (J Med Chem, 2010).

Where only a bound is given, the exact number is not on record here.

T2 sequence (O75762 whole entry): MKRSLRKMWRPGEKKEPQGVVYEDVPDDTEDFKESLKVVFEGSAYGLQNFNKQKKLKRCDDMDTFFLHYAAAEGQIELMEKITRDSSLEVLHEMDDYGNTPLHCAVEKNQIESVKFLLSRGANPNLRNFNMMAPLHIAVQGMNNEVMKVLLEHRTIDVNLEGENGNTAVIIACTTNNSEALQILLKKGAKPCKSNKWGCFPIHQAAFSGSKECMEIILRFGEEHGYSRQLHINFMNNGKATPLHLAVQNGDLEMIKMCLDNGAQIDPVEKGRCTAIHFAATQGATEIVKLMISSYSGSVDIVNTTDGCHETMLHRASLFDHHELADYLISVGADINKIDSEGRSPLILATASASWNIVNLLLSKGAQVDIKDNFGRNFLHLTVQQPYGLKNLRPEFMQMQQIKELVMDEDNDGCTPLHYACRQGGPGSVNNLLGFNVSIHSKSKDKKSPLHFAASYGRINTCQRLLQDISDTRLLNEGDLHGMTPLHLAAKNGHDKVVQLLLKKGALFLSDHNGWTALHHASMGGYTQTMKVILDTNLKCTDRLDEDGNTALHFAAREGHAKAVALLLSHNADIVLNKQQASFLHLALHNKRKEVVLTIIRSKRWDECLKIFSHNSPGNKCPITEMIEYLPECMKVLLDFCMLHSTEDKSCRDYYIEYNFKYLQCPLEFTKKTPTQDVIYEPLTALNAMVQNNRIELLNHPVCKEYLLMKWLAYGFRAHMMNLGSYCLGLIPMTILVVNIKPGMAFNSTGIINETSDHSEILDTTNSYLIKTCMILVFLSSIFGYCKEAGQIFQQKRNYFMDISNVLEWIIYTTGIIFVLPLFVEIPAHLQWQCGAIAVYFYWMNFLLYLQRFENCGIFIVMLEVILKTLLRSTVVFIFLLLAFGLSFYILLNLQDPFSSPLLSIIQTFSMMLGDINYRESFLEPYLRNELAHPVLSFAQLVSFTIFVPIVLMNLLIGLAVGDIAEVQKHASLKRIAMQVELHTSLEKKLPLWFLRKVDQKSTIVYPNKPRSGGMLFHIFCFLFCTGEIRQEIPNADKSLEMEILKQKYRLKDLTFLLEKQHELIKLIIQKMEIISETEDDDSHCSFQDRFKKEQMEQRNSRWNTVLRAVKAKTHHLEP
T1 sequence (Q8BLA8 whole entry): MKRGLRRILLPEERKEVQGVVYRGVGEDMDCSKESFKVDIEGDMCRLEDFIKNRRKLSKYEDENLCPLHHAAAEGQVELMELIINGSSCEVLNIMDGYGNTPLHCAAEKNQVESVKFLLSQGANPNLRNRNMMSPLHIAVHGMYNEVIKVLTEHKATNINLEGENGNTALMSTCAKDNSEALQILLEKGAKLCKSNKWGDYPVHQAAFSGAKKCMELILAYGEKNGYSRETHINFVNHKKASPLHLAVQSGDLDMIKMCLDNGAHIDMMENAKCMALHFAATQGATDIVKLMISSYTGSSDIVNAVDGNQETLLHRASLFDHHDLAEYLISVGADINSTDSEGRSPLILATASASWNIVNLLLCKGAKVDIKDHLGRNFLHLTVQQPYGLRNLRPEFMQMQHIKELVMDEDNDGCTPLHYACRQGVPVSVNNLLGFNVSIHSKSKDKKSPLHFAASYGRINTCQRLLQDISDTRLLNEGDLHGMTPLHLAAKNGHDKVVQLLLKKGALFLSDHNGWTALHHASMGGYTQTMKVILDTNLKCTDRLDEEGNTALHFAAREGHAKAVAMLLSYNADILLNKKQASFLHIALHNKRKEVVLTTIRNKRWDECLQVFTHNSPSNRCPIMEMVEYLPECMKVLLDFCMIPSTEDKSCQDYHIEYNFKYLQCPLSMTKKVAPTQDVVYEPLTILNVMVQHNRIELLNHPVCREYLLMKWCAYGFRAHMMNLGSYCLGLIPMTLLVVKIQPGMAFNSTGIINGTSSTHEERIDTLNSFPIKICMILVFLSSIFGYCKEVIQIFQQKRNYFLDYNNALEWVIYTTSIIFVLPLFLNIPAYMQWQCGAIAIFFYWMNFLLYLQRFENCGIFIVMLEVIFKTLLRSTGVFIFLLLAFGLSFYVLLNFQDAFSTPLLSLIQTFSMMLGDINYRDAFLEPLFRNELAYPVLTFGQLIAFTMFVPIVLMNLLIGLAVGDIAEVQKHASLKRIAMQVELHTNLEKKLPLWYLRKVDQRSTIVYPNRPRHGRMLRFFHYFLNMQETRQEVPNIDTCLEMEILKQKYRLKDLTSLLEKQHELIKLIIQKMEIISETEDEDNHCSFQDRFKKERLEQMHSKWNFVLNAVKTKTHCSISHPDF
T3 sequence (Q7Z2W7 whole entry): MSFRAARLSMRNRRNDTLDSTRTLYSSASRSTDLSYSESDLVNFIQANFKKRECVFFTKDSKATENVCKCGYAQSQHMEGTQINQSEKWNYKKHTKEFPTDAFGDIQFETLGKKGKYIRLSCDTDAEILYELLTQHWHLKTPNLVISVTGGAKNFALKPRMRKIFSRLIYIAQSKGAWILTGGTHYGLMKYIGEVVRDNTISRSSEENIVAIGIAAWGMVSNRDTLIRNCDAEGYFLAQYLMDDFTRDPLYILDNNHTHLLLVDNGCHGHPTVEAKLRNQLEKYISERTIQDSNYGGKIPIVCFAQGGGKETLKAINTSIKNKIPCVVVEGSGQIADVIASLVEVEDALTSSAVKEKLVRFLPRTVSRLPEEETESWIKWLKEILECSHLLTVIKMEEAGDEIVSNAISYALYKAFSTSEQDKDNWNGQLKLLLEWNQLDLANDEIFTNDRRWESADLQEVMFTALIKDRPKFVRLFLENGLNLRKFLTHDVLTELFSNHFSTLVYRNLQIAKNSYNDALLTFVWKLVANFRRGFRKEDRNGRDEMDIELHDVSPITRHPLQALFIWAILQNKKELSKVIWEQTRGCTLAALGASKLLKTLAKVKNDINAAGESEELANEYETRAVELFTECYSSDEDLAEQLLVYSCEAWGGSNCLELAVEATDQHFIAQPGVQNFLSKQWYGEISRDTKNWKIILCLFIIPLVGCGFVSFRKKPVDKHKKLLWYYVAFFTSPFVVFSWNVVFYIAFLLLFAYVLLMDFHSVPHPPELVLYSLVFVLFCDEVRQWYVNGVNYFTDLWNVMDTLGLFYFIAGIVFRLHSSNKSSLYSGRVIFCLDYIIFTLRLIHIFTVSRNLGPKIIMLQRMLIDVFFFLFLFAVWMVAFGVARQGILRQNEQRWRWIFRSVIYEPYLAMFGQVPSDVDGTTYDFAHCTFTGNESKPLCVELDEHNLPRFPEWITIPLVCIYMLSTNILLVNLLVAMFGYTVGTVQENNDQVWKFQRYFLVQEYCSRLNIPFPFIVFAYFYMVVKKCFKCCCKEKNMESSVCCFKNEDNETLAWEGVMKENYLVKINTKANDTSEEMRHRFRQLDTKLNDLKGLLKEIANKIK
Sequence of Transient receptor potential cation channel subfamily V member 4 (Q9HBA0 whole entry): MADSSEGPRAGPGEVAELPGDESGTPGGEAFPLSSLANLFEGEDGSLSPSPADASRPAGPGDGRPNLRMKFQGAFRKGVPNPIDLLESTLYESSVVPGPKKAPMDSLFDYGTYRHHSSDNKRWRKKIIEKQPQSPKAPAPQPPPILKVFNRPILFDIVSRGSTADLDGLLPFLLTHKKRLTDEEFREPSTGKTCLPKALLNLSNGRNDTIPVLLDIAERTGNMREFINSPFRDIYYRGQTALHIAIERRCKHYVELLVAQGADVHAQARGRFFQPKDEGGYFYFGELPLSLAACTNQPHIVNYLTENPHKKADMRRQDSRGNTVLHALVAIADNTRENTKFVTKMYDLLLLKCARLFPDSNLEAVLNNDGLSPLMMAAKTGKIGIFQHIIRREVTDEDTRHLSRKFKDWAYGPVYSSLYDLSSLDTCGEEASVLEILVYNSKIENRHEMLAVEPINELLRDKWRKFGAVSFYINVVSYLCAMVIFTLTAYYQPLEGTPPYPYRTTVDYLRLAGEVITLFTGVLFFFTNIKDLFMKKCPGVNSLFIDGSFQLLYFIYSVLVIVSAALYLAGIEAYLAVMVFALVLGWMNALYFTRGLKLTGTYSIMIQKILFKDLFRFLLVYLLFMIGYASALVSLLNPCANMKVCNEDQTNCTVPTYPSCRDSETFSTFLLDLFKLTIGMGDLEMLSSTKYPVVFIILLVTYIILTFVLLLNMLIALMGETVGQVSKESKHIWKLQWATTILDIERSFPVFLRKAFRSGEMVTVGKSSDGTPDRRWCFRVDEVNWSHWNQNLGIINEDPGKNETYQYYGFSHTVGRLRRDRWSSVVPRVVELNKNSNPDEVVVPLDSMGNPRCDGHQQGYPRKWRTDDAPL
Sequence of Transient receptor potential cation channel subfamily V member 1 (Q8NER1 whole entry): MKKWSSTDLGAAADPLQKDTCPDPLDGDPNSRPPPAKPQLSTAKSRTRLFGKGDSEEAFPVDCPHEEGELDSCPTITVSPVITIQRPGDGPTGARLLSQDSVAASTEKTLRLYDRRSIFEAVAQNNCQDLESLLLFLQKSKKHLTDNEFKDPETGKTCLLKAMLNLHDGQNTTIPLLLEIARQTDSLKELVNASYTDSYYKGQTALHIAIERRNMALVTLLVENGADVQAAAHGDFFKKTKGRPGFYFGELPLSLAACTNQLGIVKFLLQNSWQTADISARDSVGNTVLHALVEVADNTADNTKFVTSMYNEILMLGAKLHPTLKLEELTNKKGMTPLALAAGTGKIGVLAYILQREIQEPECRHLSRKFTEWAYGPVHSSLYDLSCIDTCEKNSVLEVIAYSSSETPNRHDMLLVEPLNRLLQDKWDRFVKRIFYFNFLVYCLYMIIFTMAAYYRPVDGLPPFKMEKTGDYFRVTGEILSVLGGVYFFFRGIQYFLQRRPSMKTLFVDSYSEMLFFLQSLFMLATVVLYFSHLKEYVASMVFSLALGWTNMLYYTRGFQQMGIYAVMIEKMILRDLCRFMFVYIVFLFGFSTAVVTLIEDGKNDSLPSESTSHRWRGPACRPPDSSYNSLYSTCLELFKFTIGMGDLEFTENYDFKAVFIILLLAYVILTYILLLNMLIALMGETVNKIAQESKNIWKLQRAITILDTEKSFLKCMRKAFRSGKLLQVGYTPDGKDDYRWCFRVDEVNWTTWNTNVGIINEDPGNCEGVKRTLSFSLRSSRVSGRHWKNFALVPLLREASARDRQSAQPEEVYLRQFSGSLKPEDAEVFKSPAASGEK

The EC50 is the midpoint of the concentration-response curve. Take `CC1(C)C[C@H]2C=C(C=O)[C@]3(C=O)C[C@]3(C)[C@H]2C1` [ISOVELLERAL]: the EC50 came out at 2.58 µM in [1], 0.59 µM in experiment [2] and 130 µM in experiment [3].

Turning to `CC1CCC(C(C)C)C(O)C1` (stereo not drawn) [MENTHOL], the EC50 in [4] is 56 µM.

As to `O=C1NC(c2cccc([N+](=O)[O-])c2)=CCN1c1ccccc1O` [ICILLIN], the values for the EC50 in [2] and in [5] were 100 µM and 0.06 µM, respectively.

Consider `CCCCCCCC/C=C(\CCCCCCCC(=O)O)[N+](=O)[O-]` [NITROLEIC ACID], for which the EC50 in [6] was determined as 1 µM.

In general, IC50 refers to the concentration needed to halve the response being measured. For `CC(=C\c1ccc(Cl)cc1)/C(C)=N/O` [AP18 5], the IC50 in experiment [7] is 4.5 µM; in experiment [8], 3.1 µM.

In [9], `CCCCCC(=O)/C=C/C=O` came in with an EC50 of 1.9 µM.

In experiment [10], `CCC(C)c1ccc(NC(=O)Cn2cnc3c2c(=O)n(C)c(=O)n3C)cc1` (stereo not drawn) yielded an EC50 of 2500 µM. The IC50 is 18.7 µM in experiment [11] and 14.3 µM in experiment [12].

Turning to `CC(C)c1ccc(NC(=O)Cn2cnc3c2c(=O)n(C)c(=O)n3C)cc1`, in experiment [10], the EC50 was determined as 1000 µM. Besides, the IC50 was greater than 30 µM in experiment [13]; greater than 10 µM in experiment [14]; 7.5 µM in [15]; 1.8 µM in [16]; greater than 20 µM in experiment [17]; 5.3 µM in experiment [18]. For the same compound, the concentration for half-maximal inhibition (IC50) in [19] is greater than 10 µM; in experiment [12] it was 6.2 µM; in experiment [20], 4.9 µM.
